{"source": "patent US20030104085A1", "about": "“Methods and compositions for treating back pain” (priority 2001, published 2003)", "origin": "cited, not measured here", "key": {"rats": {"system": "rats", "details": "subcutaneous and epidural administration; cited from earlier work"}, "[1]": {"system": "nerve endings in the skin", "details": "topical administration; cited from earlier work"}}}
{"smiles": "C=C(C)[C@]12C[C@@H](C)[C@@]34O[C@](Cc5ccccc5)(O[C@@H]1[C@@H]3C=C(COC(=O)Cc1ccc(O)c(OC)c1)C[C@]1(O)C(=O)C(C)=C[C@@H]41)O2", "note": "[RTX, resiniferatoxin]", "values": [{"measurement": "thermal analgesia", "setting": "rats", "value": "produce thermal analgesia"}, {"measurement": "time without restoration of pain sensitivity", "setting": "rats", "value": "over 7 days"}, {"measurement": "sensitivity to chemical pain stimulation", "setting": "[1]", "value": "long-lasting insensitivity to chemical pain stimulation"}]}
